{"source": "patent US5096896A", "about": "“Sustained release compositions” (National Research Development Corporation, priority 1981, dated 1992)", "key": {"[1]": {"system": "Plasmodium berghei (N strain)", "experiment": "Experiment 1: P. berghei challenge of mice after sc injection of derivative oil with or without pyrimethamine", "type": "in vivo, Plasmodium berghei in mice (Tuck TFW male white)", "method": "In the following experiments several derivative oils of this invention, prepared as aforesaid, were evaluated and compared for suitability as matrixes for active substances in the preparation of injectable depot antimalarial systems.\nDepot preparations were made up by adding, by hand mixing, powdered active substance to the respective oil at 30% w/w.\nTwenty-eight groups of mice, 5 mice per group, were selected at random from pooled Tuck TFW male white mice of approximately body weight 20 g. The mice were provided with food and water ad libitum. Care was taken that the diet contained adequate levels of p-aminobenzoic acid and that the mouse stock was free from infection with Eperythrozoon coccoides.\nOn day 0 the groups of mice were processed as follows:\n(§1) Subcutaneous injections were administered in the mid dorsal, suprascapular position. Cages were examined daily and all deaths recorded. Mice were examined for evidence of local irritation at the site of injection.\nOn day 7, groups (cages) 1 to 7 inclusive were infected with Plasmodium berghei (N strain). 0.2 ml of an inoculum containing 1×10^6 infected mouse erythrocytes was injected into the tail vein of each recipient mouse. The presence or absence of patent malarial infection was determined by blood film examination three days post infection and at intervals thereafter. Standard procedures were employed in the examination of Giemsa stained blood films and in the determination of parasitaemia levels. The method of infection and the techniques for assessment of parasitaemia were as described previously. Some groups in which no parasitaemia developed after the initial inoculation with P. berghei were subsequently reinfected on the days illustrated in Table 5."}, "[2]": {"system": "Plasmodium berghei (N strain)", "experiment": "Experiment 2: P. berghei challenge of mice after sc injection of oil/pyrimethamine mixtures", "type": "in vivo, Plasmodium berghei in mice (Tuck TFW)", "method": "This experiment was designed to extend the observation presented above in Experiment 1. All basic experimental procedures, including the preparation of 30% w/w dispersions of pyrimethamine base in S1, S2 and S3, were performed as described above. The primary objective was to obtain confirmation of the results obtained above whilst extending the period of observation. […] Twenty-seven groups of mice, with 5 mice in each, were again selected at random from pooled male white mice (Tuck TFW) of 20 gm body weight. Individual groups received 50 mg injections sc of S1 + pyrimethamine, S2 + pyrimethamine, S3 + pyrimethamine or S2 above. The distribution of groups is shown below:\nAt intervals of 14 days one group of mice from each of the different classes of inocula were infected by the intravenous injection of 1×10^6 mouse erythrocytes parasitised with P. berghei (N strain).\nThe examination of mice for P. berghei infection was performed as described above in Experiment 1."}, "[3]": {"system": "P. berghei drug sensitive N strain", "experiment": "Experiment 4: protection against drug sensitive N strain P. berghei", "type": "in vivo, Plasmodium berghei in mice", "method": "(§2) This experiment was designed to ascertain whether the sustained release composition of this invention could be utilised for the release of a mixture of active substances from a single depot. Preparations of 30% sulphadiazine + 10% pyrimethamine base in S2 (a new batch prepared as in Example 6) were blended and injected sc in 50 mg aliquots into mice in the suprascapular position. Additional groups of mice received S2 alone or no drug. Three groups of mice with S2 + drugs and 1 group with S2 alone were prepared for challenge on each of days 28, 42, 56 and 70. At each time interval one group each of the S2 + drug mice were challenged by the inoculation iv of 1×10^6 mouse erythrocytes infected with the drug sensitive N strain of P. berghei, the pyrimethamine resistant PYR strain and the sulphonamide resistant ORA strain, respectively. The group of mice with S2 alone was challenged with N strain parasites. Additional groups of control mice without oil were dosed with pyrimethamine (60 mg/kg) and orisulf (1000 mg/kg) immediately post-infection."}, "P. berghei": {"system": "P. berghei", "experiment": "Experiment 5: duration of protection by tetracycline in derivative oils", "type": "in vivo, Plasmodium berghei in mice", "conditions": "30% tetracycline hydrochloride in oil, 100 mg sc", "method": "This experiment (which is incomplete) was designed to ascertain the suitability of the derivatives of this invention in the administration of antibiotics. All basis experimental procedures were as described above except that the mice received 100 mg of the 30% mixtures of active substance (tetracycline as free base, or tetracycline as hydrochloride)."}, "mice (site of injection)": {"system": "mice (site of injection)", "experiment": "Tissue reaction and residual oil at the site of injection", "type": "in vivo", "method": "as §1\n(§3) An extensive toxicological investigation of the oils, either alone or in combination with antimalarials, has not been undertaken. The observations reported here are based on the behaviour and condition of mice immediately following injection of test substances, and on the development of any obvious gross pathology subsequent to drugging. All animals in experimental groups were examined at intervals for evidence of ulceration or other tissue reactions at the site of injection and mice were killed at intervals and examined for residual oil deposits and evidence of adverse tissue reactions to such deposits."}, "[4]": {"system": "P. berghei sulphonamide resistant ORA strain", "experiment": "Experiment 4: protection against sulphonamide resistant ORA strain P. berghei", "type": "in vivo, Plasmodium berghei in mice", "conditions": "1 x 1000 mg/kg, 0 (day 42 of exp)", "method": "as §2"}, "[5]": {"system": "P. berghei pyrimethamine resistant PYR strain", "experiment": "Experiment 4: protection against pyrimethamine resistant PYR strain P. berghei", "type": "in vivo, Plasmodium berghei in mice", "conditions": "1 x 60 mg/kg, 0 (day 42 of exp)", "method": "as §2"}, "mice": {"system": "mice", "experiment": "Toxicity of the derivative oils, alone or with drug, in mice", "type": "in vivo", "source_text": "as §3"}}, "note": "“Also recorded” adds a separate entry of the source.", "data": [{"smiles": "CCOC1CCCC(COC(=O)C2CCCC(OCC)O2)O1", "note": "(centres unmarked) [Example S2]", "values": [{"measurement": "Parasitaemia (%) on days post infection", "setting": "[1]; infected 7 days after drugging, day 3, 50 mg sc", "result": 11.2, "unit": "%"}, {"measurement": "Parasitaemia (%) on days post infection", "setting": "[1]; infected 7 days after drugging, day 10, * estimated, 1 only survivor", "result": "~80", "unit": "%"}, {"measurement": "Parasitaemia (%) on days post infection", "setting": "[1]; infected 21 days after drugging, day 3, 50 mg sc", "result": 24, "unit": "%"}, {"measurement": "Parasitaemia (%) on days post infection", "setting": "[1]; infected 21 days after drugging, day 10, * estimated, 1 only survivor", "result": "~80", "unit": "%"}, {"measurement": "Parasitaemia (%) on days post infection", "setting": "[1]; infected 32 days after drugging, day 3", "result": 11.6, "unit": "%"}, {"measurement": "Parasitaemia (%) on days post infection", "setting": "[1]; infected 32 days after drugging, day 7", "result": 56, "unit": "%"}, {"measurement": "Malaria parasites in blood on day 3 post-infection", "setting": "[1]; infected day 45, groups 24 and 25", "result": "no malaria parasite was observed"}, {"measurement": "Parasitaemia (%) on days post infection", "setting": "[1]; infected days 45, 48 after drugging, day 3 (first value)", "result": 0, "unit": "%"}, {"measurement": "Parasitaemia (%) on days post infection", "setting": "[1]; infected days 45, 48 after drugging, day 3 (second value, after the slash)", "result": 8.8, "unit": "%"}, {"measurement": "Parasitaemia (%) on days post infection", "setting": "[1]; infected days 45, 48 after drugging, day 7", "result": 16.4, "unit": "%"}, {"measurement": "Parasitaemia (%) on days post infection", "setting": "[1]; infected days 45, 48 after drugging, day 10", "result": 80, "unit": "%"}, {"measurement": "Minimum period of protection of mice with pyrimethamine", "setting": "[1]; oil with pyrimethamine, 50 mg sc", "result": "≥ 9", "unit": "weeks"}, {"measurement": "Duration of antimalarial protection", "setting": "[2]; 50 mg sc, 30% w/w pyrimethamine base", "result": "not less than 12 weeks"}, {"measurement": "Parasitaemia on days post infection", "setting": "[2]; challenge day 14, day 3/4, a: only one mouse surviving", "result": 41, "unit": "%"}, {"measurement": "Parasitaemia on days post infection", "setting": "[2]; challenge day 14, day 7/8, a: only one mouse surviving", "result": 80, "unit": "%"}, {"measurement": "Parasitaemia on days post infection", "setting": "[2]; challenge day 28, day 3/4", "result": 26, "unit": "%"}, {"measurement": "Parasitaemia on days post infection", "setting": "[2]; challenge day 28, day 7/8", "result": 50, "unit": "%"}, {"measurement": "Parasitaemia on days post infection", "setting": "[2]; challenge day 42, day 3/4", "result": 3.7, "unit": "%"}, {"measurement": "Parasitaemia on days post infection", "setting": "[2]; challenge day 42, day 7/8", "result": 32, "unit": "%"}, {"measurement": "Parasitaemia on days post infection", "setting": "[2]; challenge day 56, day 3/4", "result": 26, "unit": "%"}, {"measurement": "Parasitaemia on days post infection", "setting": "[2]; challenge day 56, day 7/8", "result": 70, "unit": "%"}, {"measurement": "Parasitaemia on days post infection", "setting": "[2]; challenge day 56, day 10", "result": 78, "unit": "%"}, {"measurement": "Parasitaemia on days post infection", "setting": "[2]; challenge day 70, day 3/4", "result": 23, "unit": "%"}, {"measurement": "Parasitaemia on days post infection", "setting": "[2]; challenge day 70, day 7/8", "result": 74, "unit": "%"}, {"measurement": "Parasitaemia on days post infection", "setting": "[2]; challenge day 70, day 10, a: only one mouse surviving", "result": 80, "unit": "%"}, {"measurement": "Parasitaemia on days post infection", "setting": "[2]; challenge day 84, day 3/4", "result": 29.6, "unit": "%"}, {"measurement": "Parasitaemia on days post infection", "setting": "[2]; challenge day 84, day 7/8, c: one mouse of 5 patent", "result": 70, "unit": "%"}, {"measurement": "Parasitaemia on days post infection", "setting": "[2]; challenge day 84, day 10", "result": 80, "unit": "%"}, {"measurement": "Mice with patent parasitaemia post-challenge", "setting": "[3]; challenge day 28, day 3", "result": "5/5"}, {"measurement": "Mice with patent parasitaemia post-challenge", "setting": "[3]; challenge day 28, day 7", "result": "5/5"}, {"measurement": "Mice with patent parasitaemia post-challenge", "setting": "[3]; challenge day 42, day 3", "result": "5/5"}, {"measurement": "Mice with patent parasitaemia post-challenge", "setting": "[3]; challenge day 42, day 7", "result": "2/2"}, {"measurement": "Mice with patent parasitaemia post-challenge", "setting": "[3]; challenge day 56, day 3", "result": "5/5"}, {"measurement": "Mice with patent parasitaemia post-challenge", "setting": "[3]; challenge day 56, day 7", "result": "5/5"}, {"measurement": "Duration of protection (days), tetracycline HCl", "setting": "P. berghei", "result": "< 7", "unit": "days"}, {"measurement": "Residual injected oil at injection site", "setting": "mice (site of injection); 54 days after injection", "result": "Residues of the injected material were found in each of the 5 mice; also recorded: Somewhat greater quantities, albeit small amounts"}, {"measurement": "Persistence of oil in vivo", "setting": "mice (site of injection); in words", "result": "stable for a surprisingly long time in vivo"}, {"measurement": "Tissue reaction to oil at injection site", "setting": "mice (site of injection); oil alone, autopsy at 54 days", "result": "No evidence of adverse tissue reaction; also recorded: no marked fibrosis or vascularisation of the oil depot site"}]}, {"smiles": "Nc1ccc(S(=O)(=O)Nc2ccnn2-c2ccccc2)cc1", "note": "[orisulf]", "values": [{"measurement": "Mice with patent parasitaemia post-challenge", "setting": "[4]; day 3", "result": "5/5"}, {"measurement": "Mice with patent parasitaemia post-challenge", "setting": "[4]; day 7", "result": "5/5"}, {"measurement": "Mice with patent parasitaemia post-challenge", "setting": "[4]; day 10", "result": "5/5"}]}, {"smiles": "CCc1nc(N)nc(N)c1-c1ccc(Cl)cc1", "note": "[pyr, pyrimethamine]", "values": [{"measurement": "Mice with patent parasitaemia post-challenge", "setting": "[5]; day 3", "result": "5/5"}, {"measurement": "Mice with patent parasitaemia post-challenge", "setting": "[5]; day 7", "result": "4/4"}, {"measurement": "Mice with patent parasitaemia post-challenge", "setting": "[5]; day 10", "result": "4/4"}, {"measurement": "Mice dead at 24 hours", "setting": "mice; mouse, in vivo", "result": "One of 5 mice"}]}, {"smiles": "CCc1nc(N)nc(N)c1-c1ccc(Cl)cc1", "note": "[pyrimethamine isethionate]", "values": [{"measurement": "Mortality after dosing", "setting": "mice; mouse, in vivo", "result": "all mice died within 1 hour of dosing"}, {"measurement": "Distress after dosing", "setting": "mice; sc, equivalent to 750 mg/kg and 1500 mg/kg base", "result": "induced distress in animals within minutes"}]}]}
